In US20210253651A1, “METHOD FOR PRODUCING ORGANIC COMPOUND-ENCAPSULATING FERRITIN” (Ajinomoto Co., Inc., priority 2018, published 2021):
Counter-ions that a name gives are not always drawn.

Legend:
[1] = biological target: T1, FTH ferritin (Homo sapiens, UniProt P02794); test: estimation of state of DOX in FTH ferritin internal cavity; conditions: 165 molecules of DOX per molecule of FTH ferritin, cavity volume 0.18 zL
T1 construct: made in house; host or cells: Escherichia coli BL21 (DE3), plasmid pET20-FTH
T1 sequence (P02794 whole entry): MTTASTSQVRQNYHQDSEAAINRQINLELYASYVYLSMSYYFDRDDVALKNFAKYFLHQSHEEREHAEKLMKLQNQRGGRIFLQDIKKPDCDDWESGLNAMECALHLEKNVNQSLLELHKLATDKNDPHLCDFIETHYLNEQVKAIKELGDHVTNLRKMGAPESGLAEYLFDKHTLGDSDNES
Text: Ferritin has a cage shape having a diameter of 12 nm, and the diameter of an internal cavity thereof is 7 nm. Ideally, the volume of the internal cavity is 0.18 zL (zL: Zepto little, 10 to the negative power of 21). […] In view of this, it is necessary to disassemble ferritin once to allow DOX to be released in advance for quantification of DOX incorporated in ferritin by means of spectroscopic evaluation.

[2] = biological target: T1, FTH ferritin; test: ratio of amounts incorporated, one-step vs disassembly-reassembly process; assay type: physicochemical
Procedure: As a control, some of small molecule agents listed in Table 1 was incorporated into ferritin also at the disassembly-reassembly process. […] Then, 10 μL of 1M Tris-HCl buffer (pH 9.0) was added for neutralization, and the resulting solution was left to stand for 15 minutes at room temperature. After the standing, 0.5 mL of water was added. After the resulting solution was centrifuged (at 15,000 rpm for one minute), the supernatant was injected into the desalting column PD-10 (Sephadex G-25 filled product, GE Healthcare Inc.) equilibrated with 10 mM Tris-HCl buffer (pH 8) to separate the protein from a reagent that was not encapsulated. […]
The absorbances were measured using spectrophotometer (DU-800, Beckman Coulter Inc.) for these solutions, and the concentration of contained protein was determined using the protein assay CBB solution (Nacalai Tesque, Inc.) as well as bovine albumin as a standard. Absorbances at 280 nm and 480 nm were measured for Rhodamine B and Congo Red. […] Then, after the absorbances were calibrated based on the absorbances that were derived from the proteins and presumed by the amount of contained protein quantified using the protein assay CBB solution, the concentrations of small molecule agents were determined based on the calibration curves obtained by the absorbances of the molecules. […]

[3] = biological target: T1, FTH ferritin; test: one-step process incorporation of DOX into FTH ferritin; assay type: physicochemical; conditions: for incorporation efficiency of the reagent: FTH ferritin 1 mg/mL; for number of molecules of DOX incorporated into one molecule of FTH ferritin: presumed, average
Procedure: (§1) In this reaction, an acetate buffer was used for pH 3, 4, 5 and 6, while Tris-HCl buffer was used for pH 7, 8 and 9. After the standing, 0.5 mL of water was added to the resulting solution. After the resulting solution was centrifuged (at 15,000 rpm for one minute), the supernatant was injected into a desalting column PD-10 (Sephadex G-25 filled product, GE Healthcare Inc.) equilibrated with 10 mM Tris-HCl buffer (pH 8) to separate the protein from a reagent that was not encapsulated. Whole amount (3.5 mL) of the resulting solution was concentrated to 0.1 mL by centrifugal ultrafiltration using Vivaspin 20-100K (GE Healthcare Inc.), and then absorbances at 280 nm and 480 nm were measured using spectrophotometer (DU-800, Beckman Coulter Inc.).
as §1, with “After” for “In this reaction, an acetate buffer was used for pH 3, 4, 5 and 6, while Tris-HCl buffer was used for pH 7, 8 and 9. After”, “into the” for “into a”
After the standing, 0.5 mL water was added to the resulting solution. After the resulting solution was centrifuged (at 15,000 rpm for one minute), the supernatant was injected into the desalting column PD-10 (Sephadex G-25 filled product, GE Healthcare Inc.) equilibrated with 10 mM Tris-HCl buffer (pH 8) to separate the protein from a reagent that was not encapsulated. Whole amount (3.5 mL) of the resulting solution was concentrated by centrifugal ultrafiltration using Vivaspin 20-100K (GE Healthcare Inc.). Glycine-HCl buffer (pH 2.3) was added to the resulting solution to achieve a final concentration of 100 mM, then a volume was controlled to 0.2 mL. […] The absorbance at 480 nm was measured using spectrophotometer (DU-800, Beckman Coulter Inc.) for the resulting solution in order to determine the concentration of DOX. The concentration of protein in the solution was determined using the protein assay CBB solution (Nacalai Tesque, Inc.) as well as bovine albumin as a standard.
After the standing, 0.5 mL water was added to the resulting solution. After the resulting solution was centrifuged (at 15,000 rpm for one minute), the supernatant was injected into the desalting column PD-10 (Sephadex G-25 filled product, GE Healthcare Inc.) equilibrated with 10 mM Tris-HCl buffer (pH 8) to separate the protein from a reagent that was not encapsulated. Whole amount (3.5 mL) of the resulting solution was concentrated by centrifugal ultrafiltration using Vivaspin 20-100K (GE Healthcare Inc.). Glycine-HCl buffer (pH 2.3) was added to the resulting solution to achieve a final concentration of 100 mM, then a volume was controlled to 0.5 mL. The absorbance at 480 nm was measured using spectrophotometer (DU-800, Beckman Coulter Inc.) for the resulting solution in order to determine the concentration of DOX. The concentration of protein in the solution was determined using the protein assay CBB solution (Nacalai Tesque, Inc.) as well as bovine albumin as a standard.

[4] = pH 9, 60° C., after 30 minutes, DOX 0.1 mg/mL

Structure (SMILES): COc1cccc2c1C(=O)c1c(O)c3c(c(O)c1C2=O)C[C@@](O)(C(=O)CO)C[C@@H]3OC1CC(N)C(O)C(C)O1 (stereo partly shown) [DOX, Doxorubicin hydrochloride]
- concentration of DOX in the internal cavity of ferritin [1]: 890 g/L
- ratio of amount incorporated at the one-step process to that at the disassembly-reassembly process [2]: 30 fold
- incorporation efficiency of the reagent ([3]; pH 6 or less, 25° C., 60 minutes, DOX 0.1 mg/mL): ≤ 0.5 ° (wt)
- incorporation efficiency of the reagent ([3]; pH 9, 25° C., 60 minutes, DOX 0.1 mg/mL): ≥ 1 % (wt)
- incorporation efficiency of the reagent ([3]; pH 9, 60° C., 60 minutes, DOX 0.1 mg/mL): ≥ 5 % (wt)
- number of molecules of DOX incorporated into one molecule of FTH ferritin ([3]; pH 9, 60° C., 60 minutes, at maximum incorporation): 165
- incorporation efficiency of the reagent at the maximum ([3]; pH 9, 60° C., 60 minutes, concentration ratio of FTH ferritin to DOX varied (10:3 or less)): 16 % (wt)
- maximum incorporation efficiency of the reagent [3, 4]: 5 % (wt)
- number of molecules of DOX incorporated into one molecule of FTH ferritin [3, 4]: 50
- rate of DOX incorporation ([3]; pH 9, 60° C., until 30 minutes): 1.7 mg-DOX/minute per gram of ferritin
